Measurements: US20250066369A1, “BICYCLIC PHTHALAZIN-1(2H)-ONE DERIVATIVES AND RELATED USES” (NodThera Limited, priority 2022, published 2025)
Structures can show the parent of a compound that is named as a salt.

Test system: IL-1β release upon NLRP3 activation in peripheral blood mononuclear cells (PBMC)
Experiment: PBMC IC50 determination assay: inhibition of IL-1β release upon NLRP3 activation
Assay type: cell-based
Details: PBMC primed with LPS 3 h, compound 30 min, stimulated with ATP (5 mM) or nigericin (10 μM) 1 h, IL-1β by ELISA (Protocol A) or HTRF (Protocol B)
Description: PBMC IC50 determination assay. The compounds of the present disclosure were tested for their inhibitory activity against IL-1β release upon NLRP3 activation in peripheral blood mononuclear cells (PBMC).
Protocol A. PBMC were isolated from buffy coats by density gradient centrifugation on Histopaque-1077 (Sigma, cat no. 10771). Isolated cells were seeded into the wells of a 96-well plate and incubated for 3 h with lipopolysaccharide (LPS). Following medium exchange, the compounds of the present disclosure were added (a single compound per well) and the cells were incubated for 30 min. Next, the cells were stimulated either with ATP (5 mM) or nigericin (10 μM) for 1 h and the cell culture media from the wells were collected for further analysis.
The release of IL-1β into the media was determined by a quantitative detection of IL-1β in the media using an IL-1β enzyme-linked immunosorbent assay (ELISA) Ready-SET-Go!, eBioscience cat. No. 88-7261-88. Briefly, in a first step, high affinity binding plates (Corning, Costar 9018 or NUNC Maxisorp Cat No. 44-2404) were coated overnight at 4° C. with specific capture antibody included in the kit (anti-human IL-1β ref. 14-7018-68). Subsequently, plates were blocked with blocking buffer for 1 h at room temperature (rt) and after washing with a buffer (PBS with 0.05% Tween-20) incubated with protein standard and culture media. After 2 h of incubation at rt, plates were washed and incubated with biotinylated detection antibody included in the kit (anti-human IL-1β Biotin ref 33-7110-68) for 1 h at rt. Plates were washed and incubated with HRP-streptavidin for 30 min at rt and washed again. The signal was developed after addition of 3,3′,5,5′-tetramethylbenzidine-peroxidase (TMB) until colour appeared and the reaction was stopped by 2 M H2SO4. A microplate spectrophotometer (BioTek) was used to detect signals with 450 nm. The detection range of IL-1β ELISA was […].
Protocol B. PBMC were isolated from buffy coats by density gradient centrifugation on Histopaque-1077 (Sigma, cat no. 10771). Isolated cells were seeded into the wells (280,000 cells/well) of a 96-well plate and incubated for 3 h with lipopolysaccharide (LPS, 1 μg/mL diluted 1000× from a 1 mg/mL stock solution). The compounds of the present disclosure were added (a single compound per well) and the cells were incubated for 30 min. Next, the cells were stimulated with ATP (5 mM final concentration diluted 20× from a 100 mM stock solution) for 1 h and the cell culture media from the wells were collected for further analysis.
The release of IL-1β into the media was determined by quantitative detection of IL-1β in the media using HTRF®, CisBio cat. No. 62HIL1BPEH. Briefly, cell culture supernatant were dispensed directly into the assay plate containing antibodies labelled with the HTRF® donor and acceptor. A microplate spectrophotometer (BMG) was used to detect signals at 655 nm and 620 nm. The detection range of IL-1β HTRF® was 39-6500 μg/mL.

Row | Compound | IC50 (PBMC) | IC50
1 | CCn1cc2c(=O)n(CC(=O)Nc3ncccn3)nc(CF)c2n1 [Compound 40, 2-(2-Ethyl-7-(fluoromethyl)-4-oxo-2,4-dihydro-5H-pyrazolo[3,4-d]pyridazin-5-yl)-N-(pyrimidin-2-yl)acetamide] | 1000 to 3000 nM | 
2 | CNc1cc2c(=O)n(CC(=O)Nc3ncccn3)nc(C(C)C)c2o1 [Compound 111, 2-[2-(Methylamino)-4-oxo-7-(propan-2-yl)-4H,5H-furo[2,3-d]pyridazin-5-yl]-N-(pyrimidin-2-yl)acetamide] | 100 to 1000 nM | 
3 | CC(C)Nc1cc2c(C(C)C)nn(CC(=O)Nc3ncccn3)c(=O)c2s1 [Compound 93, 2-[7-Oxo-4-(propan-2-yl)-2-[(propan-2-yl)amino]-6H,7H-thieno[2,3-d]pyridazin-6-yl]-N-(pyrimidin-2-yl)acetamide] | 100 to 1000 nM | 
4 | Cc1nn(CC(=O)Nc2ncc(Cl)cn2)c(=O)c2cc(C3CC3)oc12 [Compound 84, N-(5-Chloropyrimidin-2-yl)-2-{2-cyclopropyl-7-methyl-4-oxo-4H,5H-furo[2,3-d]pyridazin-5-yl}acetamide] | 100 to 1000 nM | 
5 | CC(C)c1nn(CC(=O)Nc2ncc(F)cn2)c(=O)c2cn(C3CC3)nc12 [Compound 17, 2-(2-Cyclopropyl-7-isopropyl-4-oxo-pyrazolo[3,4-d]pyridazin-5-yl)-N-(5-fluoropyrimidin-2-yl) acetamide] |  | 100 to 1000 nM
6 | CC(C)c1nn(CC(=O)Nc2ncc(F)cn2)c(=O)c2cc(Cl)sc12 [Compound 59, 2-(2-Chloro-7-isopropyl-4-oxothieno[2,3-d]pyridazin-5(4H)-yl)-N-(5-fluoropyrimidin-2-yl)acetamide] | 100 to 1000 nM | 
7 | CC(C)c1nn(CC(=O)Nc2ncco2)c(=O)c2cn(C3CC3)nc12 [Compound 73, 2-(2-Cyclopropyl-7-isopropyl-4-oxo-2,4-dihydro-5H-pyrazolo[3,4-d]pyridazin-5-yl)-N-(oxazol-2-yl)acetamide] | 100 to 1000 nM | 
8 | CC(C)c1nn(CC(=O)Nc2ncco2)c(=O)c2cc(C3CC3)oc12 [Compound 79, 2-(2-Cyclopropyl-7-isopropyl-4-oxofuro[2,3-d]pyridazin-5(4H)-yl)-N-(oxazol-2-yl)acetamide] | 100 to 1000 nM | 
9 | Cc1nn(CC(=O)N[C@@H]2CCCN(C)C2)c(=O)c2ccc(C3CC3)nc12 [Compound 46] | 1000 to 3000 nM | 
10 | COc1cc2c(=O)n(CC(=O)Nc3ncccn3)nc(C(C)C)c2o1 [Compound 108, 2-[2-Methoxy-4-oxo-7-(propan-2-yl)-4H,5H-furo[2,3-d]pyridazin-5-yl]-N-(pyrimidin-2-yl)acetamide] | 3000 to 10000 nM | 
11 | CC(C)c1nn(CC(=O)Nc2ncco2)c(=O)c2cn(C(C)C)nc12 [Compound 72, 2-(2,7-Diisopropyl-4-oxo-pyrazolo[3,4-d]pyridazin-5-yl)-N-oxazol-2-yl-acetamide] | 100 to 1000 nM | 
12 | CCN(C)c1cc2c(C(C)C)nn(CC(=O)Nc3ncccn3)c(=O)c2s1 [Compound 97, 2-{2-[Ethyl(methyl)amino]-7-oxo-4-(propan-2-yl)-6H,7H-thieno[2,3-d]pyridazin-6-yl}-N-(pyrimidin-2-yl)acetamide] | 3000 to 10000 nM | 
13 | CC(C)c1nn(CC(=O)N[C@@H]2CCCN(C3CC3)C2)c(=O)c2sc(Cl)cc12 [Compound 11, 2-(2-Chloro-4-isopropyl-7-oxo-thieno[2,3-d]pyridazin-6-yl)-N-[(3R)-1-cyclopropyl-3-piperidyl]acetamide] | 1000 to 3000 nM | 
14 | Cc1nc(NC(=O)Cn2nc(C(C)C)c3nc(C4CC4)ccc3c2=O)ns1 [Compound 26, 2-(2-Cyclopropyl-8-isopropyl-5-oxo-pyrido[2,3-d]pyridazin-6-yl)-N-(5-methyl-1,2,4-thiadiazol-3-yl)acetamide] | 100 to 1000 nM | 
15 | CCn1cc2c(=O)n(CC(=O)N[C@H]3CCCN4CCC[C@@H]34)nc(C(C)C)c2n1 (stereo in doubt) [Compound 7, N-[Cis-1,2,3,5,6,7,8,8a-octahydroindolizin-8-yl]-2-(2-ethyl-7-isopropyl-4-oxo-pyrazolo[3,4-d]pyridazin-5-yl) acetamide hydrochloride] | 1000 to 3000 nM | 
16 | CC(C)c1nn(CC(=O)Nc2ncccn2)c(=O)c2sc(NCC(F)(F)F)cc12 [Compound 100, 2-[7-Oxo-4-(propan-2-yl)-2-[(2,2,2-trifluoroethyl)amino]-6H,7H-thieno[2,3-d]pyridazin-6-yl]-N-(pyrimidin-2-yl)acetamide] | 1000 to 3000 nM | 
17 | CC(C)c1nn(CC(=O)Nc2ncco2)c(=O)c2sc(C3CC3)cc12 [Compound 76, 2-(2-Cyclopropyl-4-isopropyl-7-oxothieno[2,3-d]pyridazin-6(7H)-yl)-N-(oxazol-2-yl)acetamide] | 100 to 1000 nM | 
18 | CCCc1cc2c(C(C)C)nn(CC(=O)Nc3ncccn3)c(=O)c2s1 [Compound 99, 2-[7-Oxo-4-(propan-2-yl)-2-propyl-6H,7H-thieno[2,3-d]pyridazin-6-yl]-N-(pyrimidin-2-yl)acetamide] | 100 to 1000 nM | 
19 | Cc1nc(NC(=O)Cn2nc(C(C)C)c3cc(C4CC4)ncc3c2=O)ns1 [Compound 19, 2-(7-Cyclopropyl-1-isopropyl-4-oxo-pyrido[3,4-d]pyridazin-3-yl)-N-(5-methyl-1,2,4-thiadiazol-3-yl)acetamide] | 10000 to 50000 nM | 
20 | CCc1ccc2c(=O)n(CC(=O)Nc3ncc(F)cn3)nc(C(C)C)c2n1 [Compound 43] | 100 to 1000 nM | 
21 | CC(C)c1nn(CC(=O)Nc2ccc3nncn3n2)c(=O)c2cc(C3CC3)oc12 [Compound 105, 2-[2-Cyclopropyl-4-oxo-7-(propan-2-yl)-4H,5H-furo[2,3-d]pyridazin-5-yl]-N-{[1,2,4]triazolo[4,3-b]pyridazin-6-yl}acetamide] | 100 to 1000 nM | 
22 | CCc1nn(CC(=O)Nc2ncccn2)c(=O)c2sc(C)cc12 [Compound 116] | 1000 to 3000 nM | 
23 | Cc1nn(CC(=O)Nc2ncco2)c(=O)c2cc(C3CC3)oc12 [Compound 87, 2-{2-cyclopropyl-7-methyl-4-oxo-4H,5H-furo[2,3-d]pyridazin-5-yl}-N-(1,3-oxazol-2-yl)acetamide] | 1000 to 3000 nM | 
24 | CC(C)c1nn(CC(=O)Nc2ncc(F)cn2)c(=O)c2ccc(C3CC3)nc12 [Compound 28, 2-(2-Cyclopropyl-8-isopropyl-5-oxo-pyrido[2,3-d]pyridazin-6-yl)-N-(5-fluoropyrimidin-2-yl)acetamide] | 100 to 1000 nM | 
25 | CC(C)c1nn(CC(=O)Nc2ccc3nncn3c2)c(=O)c2cc(C3CC3)oc12 [Compound 104, 2-[2-Cyclopropyl-4-oxo-7-(propan-2-yl)-4H,5H-furo[2,3-d]pyridazin-5-yl]-N-{[1,2,4]triazolo[4,3-a]pyridin-6-yl}acetamide] | 100 to 1000 nM | 
26 | CC(C)c1nn(C2(C(=O)Nc3ncccn3)CC2)c(=O)c2cn(C3CC3)nc12 [Compound 66, 1-(2-Cyclopropyl-7-isopropyl-4-oxo-2,4-dihydro-5H-pyrazolo[3,4-d]pyridazin-5-yl)-N-(pyrimidin-2-yl)cyclopropane-1-carboxamide] |  | 3000 to 10000 nM
27 | CCc1cc2c(=O)n(CC(=O)Nc3ncccn3)nc(CC)c2o1 [Compound 54, 2-(2,7-Diethyl-4-oxofuro[2,3-d]pyridazin-5(4H)-yl)-N-(pyrimidin-2-yl)acetamide] | 100 to 1000 nM | 
28 | CC(C)c1nn(CC(=O)Nc2ncccn2)c(=O)c2sc(C3CC3)cc12 [Compound 75, 2-(2-Cyclopropyl-4-isopropyl-7-oxothieno[2,3-d]pyridazin-6(7H)-yl)-N-(pyrimidin-2-yl)acetamide] | 100 to 1000 nM | 
